Key:
Test in all cases: Caliper, Mobility shift assay off-chip
ABL1 (human) = ABL1 (human) (UniProt P00519)
EGFR (human) = EGFR (human) (UniProt P00533)
LCK (human) = LCK (human) (UniProt P06239)
LCK (human), sequence (P06239 whole entry, looked up): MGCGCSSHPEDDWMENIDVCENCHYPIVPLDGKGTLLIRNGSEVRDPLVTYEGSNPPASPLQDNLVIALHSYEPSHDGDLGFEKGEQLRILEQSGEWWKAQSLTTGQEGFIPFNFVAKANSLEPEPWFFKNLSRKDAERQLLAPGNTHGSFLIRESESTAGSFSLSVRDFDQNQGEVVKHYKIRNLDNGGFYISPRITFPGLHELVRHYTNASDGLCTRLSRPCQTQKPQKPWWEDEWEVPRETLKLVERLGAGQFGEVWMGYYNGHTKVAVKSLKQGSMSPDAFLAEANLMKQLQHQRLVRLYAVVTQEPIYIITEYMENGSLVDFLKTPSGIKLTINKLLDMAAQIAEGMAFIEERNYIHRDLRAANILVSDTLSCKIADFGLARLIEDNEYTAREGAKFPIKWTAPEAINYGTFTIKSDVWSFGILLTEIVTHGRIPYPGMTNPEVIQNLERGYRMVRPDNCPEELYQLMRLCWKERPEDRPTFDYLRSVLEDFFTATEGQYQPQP

EGFR (human), sequence (P00533 whole entry, looked up): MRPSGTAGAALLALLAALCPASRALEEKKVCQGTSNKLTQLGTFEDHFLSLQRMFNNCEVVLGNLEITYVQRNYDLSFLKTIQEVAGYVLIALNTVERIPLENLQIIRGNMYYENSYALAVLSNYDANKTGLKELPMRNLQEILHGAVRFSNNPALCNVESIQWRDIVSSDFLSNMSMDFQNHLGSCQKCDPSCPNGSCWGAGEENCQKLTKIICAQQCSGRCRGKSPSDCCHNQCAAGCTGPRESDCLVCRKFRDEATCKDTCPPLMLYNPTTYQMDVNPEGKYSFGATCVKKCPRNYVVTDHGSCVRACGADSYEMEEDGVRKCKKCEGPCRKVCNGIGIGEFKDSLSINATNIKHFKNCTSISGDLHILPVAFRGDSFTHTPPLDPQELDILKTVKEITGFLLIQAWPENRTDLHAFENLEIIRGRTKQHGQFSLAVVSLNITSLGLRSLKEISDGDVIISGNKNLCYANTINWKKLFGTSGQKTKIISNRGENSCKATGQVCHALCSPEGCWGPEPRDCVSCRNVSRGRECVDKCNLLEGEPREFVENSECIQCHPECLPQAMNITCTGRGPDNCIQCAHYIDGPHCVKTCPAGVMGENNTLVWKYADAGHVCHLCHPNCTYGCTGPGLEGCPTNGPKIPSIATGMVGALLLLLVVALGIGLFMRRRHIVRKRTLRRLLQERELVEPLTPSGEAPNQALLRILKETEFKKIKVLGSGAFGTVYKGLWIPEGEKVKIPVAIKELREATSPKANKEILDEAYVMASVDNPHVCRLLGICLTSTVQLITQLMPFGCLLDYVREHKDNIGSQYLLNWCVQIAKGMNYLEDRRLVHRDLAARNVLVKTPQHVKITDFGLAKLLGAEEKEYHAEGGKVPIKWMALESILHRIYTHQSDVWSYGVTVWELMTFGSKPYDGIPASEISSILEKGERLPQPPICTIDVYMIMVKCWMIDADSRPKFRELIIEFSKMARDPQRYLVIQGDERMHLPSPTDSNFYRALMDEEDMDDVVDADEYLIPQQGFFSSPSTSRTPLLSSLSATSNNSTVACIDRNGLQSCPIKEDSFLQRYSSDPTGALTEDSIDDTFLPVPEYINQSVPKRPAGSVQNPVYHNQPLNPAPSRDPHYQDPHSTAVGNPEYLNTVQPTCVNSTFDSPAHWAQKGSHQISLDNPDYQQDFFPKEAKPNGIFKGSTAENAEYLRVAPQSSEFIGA
ABL1 (human), sequence (P00519 whole entry, looked up): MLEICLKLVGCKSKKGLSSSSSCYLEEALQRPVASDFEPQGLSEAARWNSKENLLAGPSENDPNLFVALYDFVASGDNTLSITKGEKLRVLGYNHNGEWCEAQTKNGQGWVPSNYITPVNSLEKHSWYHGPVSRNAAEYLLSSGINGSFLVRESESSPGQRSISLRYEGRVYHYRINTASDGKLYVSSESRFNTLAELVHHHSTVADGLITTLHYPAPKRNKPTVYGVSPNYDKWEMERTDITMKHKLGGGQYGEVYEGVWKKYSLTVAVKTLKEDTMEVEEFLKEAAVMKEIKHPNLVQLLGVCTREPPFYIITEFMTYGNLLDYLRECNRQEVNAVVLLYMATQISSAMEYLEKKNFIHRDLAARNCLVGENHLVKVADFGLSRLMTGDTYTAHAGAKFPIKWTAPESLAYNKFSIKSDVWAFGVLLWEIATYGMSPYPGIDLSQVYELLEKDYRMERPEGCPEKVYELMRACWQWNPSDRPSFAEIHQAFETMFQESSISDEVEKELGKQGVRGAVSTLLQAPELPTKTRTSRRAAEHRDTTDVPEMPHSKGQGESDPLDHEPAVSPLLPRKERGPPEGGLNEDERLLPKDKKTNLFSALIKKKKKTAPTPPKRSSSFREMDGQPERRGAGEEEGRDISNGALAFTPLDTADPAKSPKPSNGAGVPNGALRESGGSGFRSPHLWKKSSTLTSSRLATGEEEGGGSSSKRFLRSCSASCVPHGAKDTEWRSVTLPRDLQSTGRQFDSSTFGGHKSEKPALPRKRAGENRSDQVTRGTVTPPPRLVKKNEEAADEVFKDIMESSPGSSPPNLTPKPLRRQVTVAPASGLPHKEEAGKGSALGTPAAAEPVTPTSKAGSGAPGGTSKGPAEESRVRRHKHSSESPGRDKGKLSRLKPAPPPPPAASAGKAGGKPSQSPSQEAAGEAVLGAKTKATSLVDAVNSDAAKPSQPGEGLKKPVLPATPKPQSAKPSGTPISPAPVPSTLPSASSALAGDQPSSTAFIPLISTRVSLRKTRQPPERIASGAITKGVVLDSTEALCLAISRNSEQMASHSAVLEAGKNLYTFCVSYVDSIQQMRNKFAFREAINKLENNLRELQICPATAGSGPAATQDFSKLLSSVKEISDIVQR

Row | Compound | inhibition (ABL1 (human); compound 0.02 µM) | inhibition (ABL1 (human); compound 0.2 µM) | inhibition (EGFR (human); compound 0.02 µM) | inhibition (EGFR (human); compound 0.2 µM) | inhibition (LCK (human); compound 0.02 µM) | inhibition (LCK (human); compound 0.2 µM)
1 | COc1cc2c(Oc3ccc4[nH]c(C)cc4c3F)ncnc2cc1OCCCN1CCCC1 | 24.1% | 58.9% | 30.6% | 78.4% | 23% | 72.7%
2 | Cc1ccc(Nc2nccc(N(C)c3ccc4c(C)n(C)nc4c3)n2)cc1S(N)(=O)=O | – | – | – | -1.3% | 7% | 44.1%

Source: the kinase profiling compilation of Christmann-Franck et al. (2016)
